Columns and labels:
HsCdk2/Cyclin A = molecular target: T1, HsCdk2/Cyclin A (Homo sapiens, UniProt P24941); experiment: CDK2 kinase assay; assay type: biochemical
T1 construct: made in house; host or cells: baculovirus/Sf9 cells
Experimental: (§1) Values are IC50 expressed in µM and calculated from dose–response curves (each point on the curves was performed in triplicate). Selectivity indexes (SI; in brackets) are calculated as follows: SI = IC50 kinase X/IC50 Haspin. ND: not determined. *IC50 values obtained using the ADP-Glo methodology (see Experimental section, Supplementary Material). […]
A, HsCdk9/Cyclin T). Native SscCK1δ /ε and SscGSK3α/β were purified from pig brain whereas HsPlk1, HsCdk1 and HsAurora B were purchased from ProQinase and SignalChem respectively. Kinase assays were performed in […]
mCi/ml; PerkinElmer) in a final volume of 30 µl as previously reported 51. After 30 min incubation at 30°C, the reaction mix was spotted onto GE healthcare P81 phosphocellulose paper using a FilterMate Harvester (PerkinElmer), and the filter was extensively washed with a 1% phosphoric acid solution. The wet filter-bound radioactivity was determined in the presence of 20 µl scintillation fluid (GE healthcare) with a TopCount® Scintillation and Luminescence Counter (PerkinElmer). IC50 values were calculated from dose-response curves […]
Kinase activities using the ADP-Glo methodology (ADP-Glo Kinase Assay; Promega) were assayed according to the assay described in Nguyen et al. 52 and Ibrahim et al. 53. […]

HsCdk5/p25 = experiment: CDK5 kinase assay; assay type: biochemical, human; settings: SI = IC50 kinase X/IC50 Haspin
Experimental: as §1
The reaction was carried out as described in general procedure A using 4 (0.150 g, 0.58 mmol, 1 equiv.), 2-aminopyrimidine-5-boronic acid (0.122 g, 0.88 mmol, 1.5 equiv.) and Cs2CO3 (0.575 g, 1.75 mmol, 3 equiv.). The crude mixture was purified by flash chromatography on silica gel (EtOAc) to afford 28 (0.115 g, 73 %) as a yellow […]
The reaction was carried out as described in general procedure A using 4 (0.100 g, 0.39 mmol, 1 equiv.), 1-naphthaleneboronic acid (0.083g, 0.47 mmol, 1.2 equiv.) and Cs2CO3 (0.381 g, 1.17 mmol, 3 equiv.). […]
Recombinant protein kinases were expressed and purified from E. coli (HsHaspin kinase domain aa470-798, HsCdk5/p25, RnDYRK1A kinase domain aa1-499, HsPIM1, MmCLK1) or baculovirus/Sf9 cells (HsCdk2/Cyclin A, HsCdk9/Cyclin T). […] The wet filter-bound radioactivity was determined in the presence of 20 µl scintillation fluid (GE healthcare) with a TopCount® Scintillation and Luminescence Counter (PerkinElmer). IC50 values were calculated from dose-response curves […]

HsPLK1 = molecular target: T2, HsPLK1 (Homo sapiens, UniProt P53350); experiment: PLK1 kinase assay; assay type: biochemical; settings: Table 4
T2 construct: purchased ProQinase
T2 sequence (P53350 whole entry): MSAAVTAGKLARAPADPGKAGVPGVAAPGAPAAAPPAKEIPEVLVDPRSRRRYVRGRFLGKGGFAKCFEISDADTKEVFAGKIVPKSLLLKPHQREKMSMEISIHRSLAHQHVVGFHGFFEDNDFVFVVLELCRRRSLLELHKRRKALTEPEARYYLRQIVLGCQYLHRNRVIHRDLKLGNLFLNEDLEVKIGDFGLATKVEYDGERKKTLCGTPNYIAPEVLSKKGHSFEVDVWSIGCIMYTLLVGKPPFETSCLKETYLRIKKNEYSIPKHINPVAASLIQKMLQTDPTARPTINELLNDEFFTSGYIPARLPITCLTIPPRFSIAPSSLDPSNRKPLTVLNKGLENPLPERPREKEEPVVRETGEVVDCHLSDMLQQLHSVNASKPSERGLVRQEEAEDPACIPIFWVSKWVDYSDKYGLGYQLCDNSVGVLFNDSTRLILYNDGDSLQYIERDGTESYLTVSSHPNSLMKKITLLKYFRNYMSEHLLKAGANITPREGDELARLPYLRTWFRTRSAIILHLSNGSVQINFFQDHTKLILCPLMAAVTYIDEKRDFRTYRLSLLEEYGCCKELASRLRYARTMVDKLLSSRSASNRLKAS
Experimental: . We therefore tested our compounds on two obvious candidates, HsCDK1 and HsPLK1 (Polo-like_kinase 1) both required for mitotic entry[50] (Table 4).
Values are IC50 expressed in µM and calculated from dose–response curves (each point from the curves was performed in duplicate). NR: not relevant. […]
Recombinant protein kinases were expressed and purified from E. coli (HsHaspin kinase domain aa470-798, HsCdk5/p25, RnDYRK1A kinase domain aa1-499, HsPIM1, MmCLK1) or baculovirus/Sf9 cells (HsCdk2/Cyclin A, HsCdk9/Cyclin T). Native SscCK1δ /ε and SscGSK3α/β were purified from pig brain whereas HsPlk1, HsCdk1 and HsAurora B were purchased from ProQinase and SignalChem respectively. Kinase assays were performed in specific buffers and substrates for each kinase tested in the presence of 15 µM [γ-33P] ATP (3,000 Ci/mmol, 10 mCi/ml; PerkinElmer) in a final volume of 30 µl as previously reported 51. After 30 min incubation at 30°C, the reaction mix was spotted onto GE healthcare P81 phosphocellulose paper using a FilterMate Harvester (PerkinElmer), and the filter was extensively washed with a 1% phosphoric acid solution. The wet filter-bound radioactivity was determined in the presence of 20 µl scintillation fluid (GE healthcare) with a TopCount® Scintillation and Luminescence Counter (PerkinElmer). IC50 values were calculated from dose-response curves

SH-SY5Y = experiment: Cell viability, monolayer (2D), MTS assay; assay type: cell-based; settings: Homo sapiens, 48 h
U-2 OS spheroids = experiment: Spheroid (3D) viability, CellTiter-Glo; assay type: cell-based, human; settings: 5 µM, Figure 4(B)

With `c1cc2[nH]ncc2cc1-c1cnc2ccc(OC[C@@H]3CNCCO3)nn12` [Compound 21] the “selectivity for CDK2 vs Haspin” value (HsCdk2/Cyclin A; SI = IC50 kinase X/IC50 Haspin) was 716 fold, the IC50 (HsCdk2/Cyclin A; read-out: IC50 CDK2) was 4.3 µM and the “selectivity for CDK5 vs Haspin” value (HsCdk5/p25) was 150 fold. The IC50 (HsPLK1) was over 10 µM, the EC50 (SH-SY5Y) was over 10 µM and the “U-2 OS spheroid remaining viability” value (U-2 OS spheroids; 2 days) was “no effects”. For the same compound, the viability at 5 µM (U-2 OS spheroids; Homo sapiens, U2OS, 240 h, 10 days, read-out: U-2 OS spheroid viability) was 69%.
